Results as given in US9834542B2, “LXR modulators” (BRISTOL-MYERS SQUIBB COMPANY, priority 2013, dated 2017).

Biological target: T1, LXRβ (Homo sapiens, UniProt P55055)
T1 construct: Co-transfection expression plasmids, comprising full-length LXRα (pCMX-h LXRα[…] or LXRβ (pCMX-hLXRβ)); expressed in transfected cells; host or cells: CV-1 African Green Monkey Kidney Cells
T1 sequence (P55055 1-460): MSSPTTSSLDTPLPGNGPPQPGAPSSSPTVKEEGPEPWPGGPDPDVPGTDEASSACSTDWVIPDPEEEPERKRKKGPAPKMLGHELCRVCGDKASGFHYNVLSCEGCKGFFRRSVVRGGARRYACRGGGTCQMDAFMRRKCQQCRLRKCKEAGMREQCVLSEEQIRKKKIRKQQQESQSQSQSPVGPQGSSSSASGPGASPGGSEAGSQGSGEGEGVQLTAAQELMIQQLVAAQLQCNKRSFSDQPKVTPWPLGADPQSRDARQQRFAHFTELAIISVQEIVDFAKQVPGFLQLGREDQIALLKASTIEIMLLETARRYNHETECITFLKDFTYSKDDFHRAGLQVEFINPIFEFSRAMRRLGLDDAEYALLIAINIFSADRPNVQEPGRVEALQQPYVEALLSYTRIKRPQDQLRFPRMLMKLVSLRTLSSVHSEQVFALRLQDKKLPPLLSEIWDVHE
T1 sequence (P19793 1-462 partner): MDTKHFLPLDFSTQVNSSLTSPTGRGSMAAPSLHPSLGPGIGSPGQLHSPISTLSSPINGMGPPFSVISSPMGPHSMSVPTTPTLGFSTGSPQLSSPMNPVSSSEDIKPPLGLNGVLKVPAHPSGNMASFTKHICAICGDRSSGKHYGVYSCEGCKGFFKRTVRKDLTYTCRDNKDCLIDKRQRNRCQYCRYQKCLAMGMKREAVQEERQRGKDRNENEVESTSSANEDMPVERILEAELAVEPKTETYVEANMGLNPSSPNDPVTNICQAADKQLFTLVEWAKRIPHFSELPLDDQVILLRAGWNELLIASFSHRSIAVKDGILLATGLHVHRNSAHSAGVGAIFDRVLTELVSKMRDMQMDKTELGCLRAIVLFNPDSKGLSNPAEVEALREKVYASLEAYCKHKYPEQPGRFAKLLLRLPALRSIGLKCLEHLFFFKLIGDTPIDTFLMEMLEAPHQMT
Experiment: Co-transfection assay (LXRE luciferase reporter), LXRβ
Assay type: cell-based
Parameters: % Efficacy: concentration or dose not given beside the values
Conditions: for EC50: CV-1 cells transfected with pCMX-hLXRβ and LXREx1-Tk-Luciferase, 20 hours incubation; for Emax: read-out: % Efficacy
Outline: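 CV-1 / pCMX-hLXRβ + LXREx1-Tk-Luc + β-gal; cpd 20 h, 37 °C, ≤0.5% DMSO; Steady-Glo luminescence. 11-pt ½-log curves, duplicate wells, sigmoidal fit → EC50; % efficacy vs high-control agonist, DMSO low control; mean of ≥2 expts.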

[1] = LXRβ co-transfection, relative to high control 1-(2,4-difluorobenzyl)-2-oxo-6-(4-phenoxyphenyl)-4-(trifluoromethyl)-1,2-dihydropyridine-3-carbonitrile

SMILES | EC50 | Emax [1] | % Efficacy [1]
Cc1nc(C(F)F)cn1-c1ccc(-c2cccc(C(C)(C)C(N)=O)c2)cc1-n1nncc1-c1ccc(OC(F)(F)F)cc1 [Example 156, 2-{4′-[4-(difluoromethyl)-2-methyl-1H-imidazol-1-yl]-3′-(5-{4-[(trifluoromethyl)oxy]phenyl}-1H-1,2,3-triazol-1-yl)biphenyl-3-yl}-2-methylpropanamide] | 1640 nM | 93% | –
Cc1nc(-c2ccc3c(c2)OC(F)(F)O3)c(-c2cc(-c3cc(Cl)c(CO)c(S(C)(=O)=O)c3)ccc2-n2cc(C(F)(F)F)nc2C)o1 [Example 623, (3-chloro-3′-(4-(2,2-difluorobenzo[d][1,3]dioxol-5-yl)-2-methyloxazol-5-yl)-4′-(2-methyl-4-(trifluoromethyl)-1H-imidazol-1-yl)-5-(methylsulfonyl)-[1,1′-biphenyl]-4-yl)methanol] | 203 nM | 80% | –
Cc1ccc(-c2oc(C)nc2-c2cc(-c3cccc(S(C)(=O)=O)c3)ccc2-n2cc(C(F)(F)F)nc2C)c(Cl)n1 [Example 422, 5-(2-chloro-6-methylpyridin-3-yl)-2-methyl-4-(4-(2-methyl-4-(trifluoromethyl)-1H-imidazol-1-yl)-3′-(methylsulfonyl)biphenyl-3-yl)oxazole] | 110 nM | 74% | –
Cc1nc(C(F)(F)F)cn1-c1ccc(-c2cccc(S(=O)(=O)C(C)C)c2)cc1-n1nncc1-c1ccc(OC(F)(F)F)cc1 [Example 98, 1-{3′-[(1-methylethyl)sulfonyl]-4-[2-methyl-4-(trifluoromethyl)-1H-imidazol-1-yl]biphenyl-3-yl}-5-{4-[(trifluoromethyl)oxy]phenyl}-1H-1,2,3-triazole] | 1030 nM | 91% | –
Cc1nc(C(F)(F)F)cn1-c1ccc(-c2cccc(S(C)(=O)=O)c2)cc1-c1nc(CC(C)C)oc1-c1ccc(OC(F)(F)F)cc1 [Example 562, 2-isobutyl-4-(4-(2-methyl-4-(trifluoromethyl)-1H-imidazol-1-yl)-3′-(methylsulfonyl)-[1,1′-biphenyl]-3-yl)-5-(4-(trifluoromethoxy)phenyl)oxazole] | 34 nM | 77% | –
Cc1nc(C(F)(F)F)cn1-c1ccc(-c2cccc(S(C)(=O)=O)c2)cc1-c1nc(C2CC2)cn1-c1ccc2c(c1)OC(F)(F)O2 [Example 643, 4-cyclopropyl-1-(2,2-difluorobenzo[d][1,3]dioxol-5-yl)-2-(4-(2-methyl-4-(trifluoromethyl)-1H-imidazol-1-yl)-3′-(methylsulfonyl)biphenyl-3-yl)-1H-imidazole] | 341 nM | 84% | –
Cc1nc(-c2cc(-c3cc(F)c(CO)c(S(C)(=O)=O)c3)ccc2-n2cc(C(F)(F)F)nc2C)c(-c2cccnc2C2CC2)o1 [Example 391] | 207 nM | 51% | –
Cc1nc(C(F)(F)F)cn1-c1c(Cl)cc(-c2cc(F)c(CO)c(S(C)(=O)=O)c2)cc1-n1nncc1-c1ccc(OC(F)(F)F)cc1 [Example 196, [3′-chloro-3-fluoro-5-(methylsulfonyl)-4′-[2-methyl-4-(trifluoromethyl)-1H-imidazol-1-yl]-5′-(5-{4-[(trifluoromethyl)oxy]phenyl}-1H-1,2,3-triazol-1-yl)biphenyl-4-yl]methanol] | 241 nM | 68% | –
Cc1nc(-c2cc(-c3cccc(S(C)(=O)=O)c3)ccc2-n2cc(C(C)O)nc2C)c(-c2ccc3c(c2)OC(F)(F)O3)o1 (single isomer, unassigned) [Example 514, 1-(1-(3-(5-(2,2-difluorobenzo[d][1,3]dioxol-5-yl)-2-methyloxazol-4-yl)-3′-(methylsulfonyl)-[1,1′-biphenyl]-4-yl)-2-methyl-1H-imidazol-4-yl)ethanol] | 3000 nM | – | 77%
Cc1nc(C(F)(F)F)c(Cl)n1-c1ccc(-c2cc(F)c(CO)c(S(C)(=O)=O)c2)cc1-n1nncc1-c1ccc(OC(F)(F)F)cc1 [Example 1, {4′-[5-chloro-2-methyl-4-(trifluoromethyl)-1H-imidazol-1-yl]-3-fluoro-5-(methylsulfonyl)-3′-(5-{4-[(trifluoromethyl)oxy]phenyl}-1H-1,2,3-triazol-1-yl)biphenyl-4-yl}methanol] | 40 nM | 116% | –
Cc1nc(-c2cc(-c3cccc(S(C)(=O)=O)c3)ccc2-n2cc(C(F)(F)F)nc2C)c(-c2ccc3c(c2)OCCO3)o1 [Example 443, 5-(2,3-dihydrobenzo[b][1,4]dioxin-6-yl)-2-methyl-4-(4-(2-methyl-4-(trifluoromethyl)-1H-imidazol-1-yl)-3′-(methylsulfonyl)biphenyl-3-yl)oxazole] | 234 nM | 75% | –
Cc1nc(C(F)(F)F)cn1-c1ccc(-c2cccc(S(C)(=O)=O)c2)cc1-n1nncc1Cc1ccc(F)cc1 [Example 124, 5-[(4-fluorophenyl)methyl]-1-{3′-(methylsulfonyl)-4-[2-methyl-4-(trifluoromethyl)-1H-imidazol-1-yl]biphenyl-3-yl}-1H-1,2,3-triazole] | 1160 nM | 64% | –
Cc1nc(-c2cc(-c3cccc(S(C)(=O)=O)c3)ccc2-n2cc(C(F)(F)F)nc2C)c(-c2ccc(N3CCCC3=O)cc2)o1 [Example 502, 1-(4-(2-methyl-4-(4-(2-methyl-4-(trifluoromethyl)-1H-imidazol-1-yl)-3′-(methylsulfonyl)biphenyl-3-yl)oxazol-5-yl)phenyl)pyrrolidin-2-one] | 1250 nM | 37% | –
Cc1nc(-c2ccc(OC(F)F)cc2)c(-c2cc(-c3cccc(S(C)(=O)=O)c3)ccc2-n2cc(C(F)(F)F)nc2C)o1 [Example 619, 4-(4-(difluoromethoxy)phenyl)-2-methyl-5-(4-(2-methyl-4-(trifluoromethyl)-1H-imidazol-1-yl)-3′-(methylsulfonyl)-[1,1′-biphenyl]-3-yl)oxazole] | 51 nM | 112% | –
Cc1nc(C(F)(F)F)cn1-c1ccc(-c2cccc(S(C)(=O)=O)c2)cc1-n1nncc1Cc1ccccc1OC(F)(F)F [Example 123, 1-{3′-(methylsulfonyl)-4-[2-methyl-4-(trifluoromethyl)-1H-imidazol-1-yl]biphenyl-3-yl}-5-({2-[(trifluoromethyl)oxy]phen-yl}methyl)-1H-1,2,3-triazole] | 1100 nM | 36% | –
Cc1nc(-c2cc(-c3cccc(S(C)(=O)=O)c3)ccc2-n2cc(C(F)(F)F)nc2C)c(-c2cc(Cl)cc(Cl)c2)o1 [Example 455, 5-(3,5-dichlorophenyl)-2-methyl-4-(4-(2-methyl-4-(trifluoromethyl)-1H-imidazol-1-yl)-3′-(methylsulfonyl)biphenyl-3-yl)oxazole] | 192 nM | 43% | –
Cc1nc(-c2cc(-c3ccc(C)c(S(C)(=O)=O)c3)ccc2-n2cc(C(F)(F)F)nc2C)c(-c2cc(F)c(OC(F)F)c(F)c2)o1 [Example 470, 5-(4-(difluoromethoxy)-3,5-difluorophenyl)-2-methyl-4-(4′-methyl-4-(2-methyl-4-(trifluoromethyl)-1H-imidazol-1-yl)-3′-(methylsulfonyl)biphenyl-3-yl)oxazole] | 109 nM | 56% | –
Cc1cc(-c2cc(-c3cc(F)c(CO)c(S(C)(=O)=O)c3)ccc2-n2cc(C(F)(F)F)nc2C)n(-c2ccc(OC(F)F)cc2)n1 [Example 287, (3′-(1-(4-(difluoromethoxy)phenyl)-3-methyl-1H-pyrazol-5-yl)-3-fluoro-4′-(2-methyl-4-(trifluoromethyl)-1H-imidazol-1-yl)-5-(methylsulfonyl)biphenyl-4-yl)methanol] | 26 nM | 80% | –
Cc1nc(-c2ccc(Cl)cc2Cl)c(-c2cc(-c3ccc(CO)c(S(C)(=O)=O)c3)ccc2-n2cc(C(F)(F)F)nc2C)o1 [Example 614, (3′-(4-(2,4-dichlorophenyl)-2-methyloxazol-5-yl)-4′-(2-methyl-4-(trifluoromethyl)-1H-imidazol-1-yl)-3-(methylsulfonyl)-[1,1′-biphenyl]-4-yl)methanol] | 47 nM | 103% | –
Cc1nc(C(F)(F)F)cn1-c1ccc(-c2cccc(S(C)(=O)=O)c2)cc1-c1ocnc1Cc1ccc(Cl)cc1 [Example 634, 4-(4-chlorobenzyl)-5-(4-(2-methyl-4-(trifluoromethyl)-1H-imidazol-1-yl)-3′-(methylsulfonyl)-[1,1′-biphenyl]-3-yl)oxazole] | 249 nM | 68% | –
